From article PMC6128740 (European journal of drug metabolism and pharmacokinetics, 2018)
Read-outs that look alike come from different tables or passages of the source.

Assays:
[1] = Tissue distribution of 14C-C3 in mice; set-up: species or system C57BL/6J mice; settings: mouse, in vivo
pregnant mouse dams = settings: in vivo; cited from earlier work
[2] = mouse, in vivo
[3] = C3 partitioning and plasma protein binding in mouse blood and plasma; assay type: in vitro ADME
[4] = mouse, in vivo; for V (volume of distribution): 1.1 mg/kg
[5] = Stability of C3 in solutions at pH 1 or pH 10; assay type: physicochemical; settings: pH 1 or pH 10 for >24 h at 37°C
[6] = 10 or 100 μg/ml, 3000 mwco centricon filter

tissue radioactivity, 7-day pump vs single bolus dose, adjusted for dose [1]: 5 times
brain uptake [2]: 10 % of the administered dose
14C-C3 in the filtrate of the saline control [3, 6]: 73%
14C-C3 in the plasma filtrate (free) [3, 6]: 13%
fraction of blood C3 in the plasma fraction ([3]; blood from treated animals and naïve blood spiked with 14C-C3, centrifugation): > 99%
protein bound ([3]; mouse plasma, 10 or 100 μg/ml, mean ± SEM): 87 ± 0.1%
V (volume of distribution) ([4]; ip): 0.91 ± 0.12 L/kg
V (volume of distribution) ([4]; iv): 0.85 ± 0.08 L/kg
Oral bioavailability ([4]; po): ~ 10 % of the i.v. administration
Substance: e,e,e, tris malonic acid C60 [C3]
effects on fertility, pregnancy, viability or anatomy of the offspring (pregnant mouse dams): failed to find any effects
stability in solution [5]: a small fraction of carboxylic acid head-groups were removed, but the cyclopropane carbons were intact
